Test results as given in patent publication US20200222474A1, “COMPOSITIONS AND METHODS FOR INCREASING PHYTOCHEMICAL BIOAVAILABLITY AND BIOACTIVITY” (North Carolina State University, priority 2017, published 2020).

Test system: L. acidophilus NCFM
Experiment: RNA-seq transcriptional analysis of L. acidophilus NCFM growing on plant glycosides
Format: cell-based, Lactobacillus acidophilus
[1] = LBA0329 Putative cell division protein, COG D
[2] = LBA0466 Hypothetical protein, COG C
[3] = LBA0500 MSM operon repressor, COG K
[4] = LBA0545 Hypothetical protein, COG L
[5] = LBA0547 Putative site-specific recombinase, COG L
[6] = LBA0573 Putative transcriptional regulator, COG K
[7] = LBA0607 Putative transcriptional regulator, COG K
[8] = LBA0672 Putative phosphate starvation inducible protein stress related, COG J
[9] = LBA0753 Multi-drug-type permease, COG GEPR
[10] = LBA0886 Sugar kinase-putative transcriptional regulator, COG KG
[11] = LBA0887 Hypothetical protein, COG C
[12] = LBA0897 Putative Cro-like protein, COG K
[13] = LBA0910 L-lactate dehydrogenase, COG C
[14] = LBA1021 Putative transcriptional regulator, COG K
[15] = LBA1220 Pyridine mercuric reductase, COG C
[16] = LBA1392 Mucus binding protein precursor Mub, COG J
[17] = LBA1411 Fumarate reductase flavoprotein subunit, COG CS
[18] = LBA1436 Glycerol uptake facilitator protein, COG G
[19] = LBA1457 Galactose-1-epimerase, COG G
[20] = LBA1458 Galactose-1-phosphate uridylyltransferase, COG G
[21] = LBA1462 Beta-galactosidase, COG G
[22] = LBA1463 Lactose permease, COG G
[23] = LBA1465 Transcription repressor of beta-galactosidasegene, COG K
[24] = LBA1467 Beta-galactosidase large subunit (lactase), COG G
[25] = LBA1468 Beta-galactosidase small subunit, COG G

SMILES: O=c1ccc2cc(O[C@@H]3O[C@H](CO)[C@@H](O)[C@H](O)[C@H]3O)c(O)cc2o1 [Esculin]
- Log2 differential normalized TPM ratio compared to glucose (LBA0016 Fructokinase, COG KG): 1.9
- Log2 differential normalized TPM ratio compared to lactose (LBA0016 Fructokinase, COG KG): 0.7
- Transcripts per million (rpm) (LBA0016 Fructokinase, COG KG): 347.8 rpm
- Log2 differential normalized TPM ratio compared to glucose [1]: 2.4
- Log2 differential normalized TPM ratio compared to lactose [1]: 1.9
- Transcripts per million (rpm) [1]: 88.3 rpm
- Log2 differential normalized TPM ratio compared to glucose [2]: 2
- Log2 differential normalized TPM ratio compared to lactose [2]: 0.5
- Transcripts per million (rpm) [2]: 408.4 rpm
- Log2 differential normalized TPM ratio compared to glucose [3]: 0.5
- Log2 differential normalized TPM ratio compared to lactose [3]: −1.1
- Transcripts per million (rpm) [3]: 78.4 rpm
- Log2 differential normalized TPM ratio compared to glucose [4]: 1.9
- Log2 differential normalized TPM ratio compared to lactose [4]: −0.1
- Transcripts per million (rpm) [4]: 286.5 rpm
- Log2 differential normalized TPM ratio compared to glucose [5]: 2.1
- Log2 differential normalized TPM ratio compared to lactose [5]: 0.4
- Transcripts per million (rpm) [5]: 50.6 rpm
- Log2 differential normalized TPM ratio compared to glucose [6]: 2.6
- Log2 differential normalized TPM ratio compared to lactose [6]: 2.5
- Transcripts per million (rpm) [6]: 592 rpm
- Log2 differential normalized TPM ratio compared to glucose [7]: 1.8
- Log2 differential normalized TPM ratio compared to lactose [7]: 1.4
- Transcripts per million (rpm) [7]: 179.3 rpm
- Log2 differential normalized TPM ratio compared to glucose [8]: 1.8
- Log2 differential normalized TPM ratio compared to lactose [8]: 0.9
- Transcripts per million (rpm) [8]: 5745.2 rpm
- Log2 differential normalized TPM ratio compared to glucose [9]: 1.6
- Log2 differential normalized TPM ratio compared to lactose [9]: 2.3
- Transcripts per million (rpm) [9]: 155 rpm
- Log2 differential normalized TPM ratio compared to glucose [10]: 1.2
- Log2 differential normalized TPM ratio compared to lactose [10]: 0.9
- Transcripts per million (rpm) [10]: 15.5 rpm
- Log2 differential normalized TPM ratio compared to glucose [11]: 1.3
- Log2 differential normalized TPM ratio compared to lactose [11]: 0.1
- Transcripts per million (rpm) [11]: 151.3 rpm
- Log2 differential normalized TPM ratio compared to glucose [12]: −0.9
- Log2 differential normalized TPM ratio compared to lactose [12]: 1.5
- Transcripts per million (rpm) [12]: 1.5 rpm
- Log2 differential normalized TPM ratio compared to glucose [13]: 2.7
- Log2 differential normalized TPM ratio compared to lactose [13]: 1.7
- Transcripts per million (rpm) [13]: 845.1 rpm
- Log2 differential normalized TPM ratio compared to glucose [14]: 2.4
- Log2 differential normalized TPM ratio compared to lactose [14]: 2
- Transcripts per million (rpm) [14]: 797.3 rpm
- Log2 differential normalized TPM ratio compared to glucose [15]: 2
- Log2 differential normalized TPM ratio compared to lactose [15]: 1.1
- Transcripts per million (rpm) [15]: 851.3 rpm
- Log2 differential normalized TPM ratio compared to glucose [16]: 2.3
- Log2 differential normalized TPM ratio compared to lactose [16]: 2.5
- Transcripts per million (rpm) [16]: 537 rpm
- Log2 differential normalized TPM ratio compared to glucose [17]: 1.7
- Log2 differential normalized TPM ratio compared to lactose [17]: 0.6
- Transcripts per million (rpm) [17]: 7.3 rpm
- Log2 differential normalized TPM ratio compared to glucose [18]: 4.9
- Log2 differential normalized TPM ratio compared to lactose [18]: 1.1
- Transcripts per million (rpm) [18]: 84.9 rpm
- Log2 differential normalized TPM ratio compared to glucose [19]: 3.2
- Log2 differential normalized TPM ratio compared to lactose [19]: −2.4
- Transcripts per million (rpm) [19]: 144.7 rpm
- Log2 differential normalized TPM ratio compared to glucose [20]: 3.4
- Log2 differential normalized TPM ratio compared to lactose [20]: −2.3
- Transcripts per million (rpm) [20]: 144 rpm
- Log2 differential normalized TPM ratio compared to glucose (LBA1459 Galactokinase, COG G): 2.3
- Log2 differential normalized TPM ratio compared to lactose (LBA1459 Galactokinase, COG G): −2.4
- Transcripts per million (rpm) (LBA1459 Galactokinase, COG G): 123.5 rpm
- Log2 differential normalized TPM ratio compared to glucose [21]: −0.5
- Log2 differential normalized TPM ratio compared to lactose [21]: −6.5
- Transcripts per million (rpm) [21]: 13 rpm
- Log2 differential normalized TPM ratio compared to glucose [22]: −0.3
- Log2 differential normalized TPM ratio compared to lactose [22]: −5
- Transcripts per million (rpm) [22]: 47.8 rpm
- Log2 differential normalized TPM ratio compared to glucose (LBA1464 Transposase, COG L): −1
- Log2 differential normalized TPM ratio compared to lactose (LBA1464 Transposase, COG L): −3.4
- Transcripts per million (rpm) (LBA1464 Transposase, COG L): 94.4 rpm
- Log2 differential normalized TPM ratio compared to glucose [23]: −0.3
- Log2 differential normalized TPM ratio compared to lactose [23]: −3.4
- Transcripts per million (rpm) [23]: 47.3 rpm
- Log2 differential normalized TPM ratio compared to glucose [24]: 2.2
- Log2 differential normalized TPM ratio compared to lactose [24]: −6.7
- Transcripts per million (rpm) [24]: 24.1 rpm
- Log2 differential normalized TPM ratio compared to glucose [25]: 0.8
- Log2 differential normalized TPM ratio compared to lactose [25]: −5.6
